Measured values published in patent US20210169892A1, “MODULATORS OF THE INTEGRATED STRESS PATHWAY” (Calico Life Sciences LLC, priority 2017, published 2021).

What follows are compounds tested on HEK293T cells carrying the ATF4 luciferase reporter (assay: ATF4-Luc assay (in vitro model of vanishing white matter disease)). Conditions: Homo sapiens, HEK-293T; HEK293T cells with ATF4 luciferase reporter, 1 μg/mL tunicamycin, 7 hours, One Glo luminescence.
Type: cell-based
Description: In order to test exemplary compounds of the invention in a cellular context, a stable VWMD cell line was first constructed. The ATF4 reporter was prepared by fusing the human full-length ATF4 5′-UTR (NCBI Accession No. BC022088.2) in front of the firefly luciferase (FLuc) coding sequence lacking the initiator methionine as described in Sidrauski et al (eLife 2013). The construct was used to produce recombinant retroviruses using standard methods and the resulting viral supernatant was used to transduce HEK293T cells, which were then subsequently selected with puromycin to generate a stable cell line.
HEK293T cells carrying the ATF4 luciferase reporter were plated on polylysine coated 384-well plates (Greiner Bio-one) at 30,000 cells per well. Cells were treated the next day with 1 μg/mL tunicamycin and 200 nM of a compound of Formula (I) for 7 hours. Luminescence was measured using One Glo (Promega) as specified by the manufacturer. Cells were maintained in DMEM with L-glutamine supplemented with 10% heat-inactivated FBS (Gibco) and Antibiotic-Antimycotic solution (Gibco).
Table 2 below summarizes the EC50 data obtained using the ATF4-Luc assay for exemplary compounds of the invention.
Work on O=C(COc1ccc(Cl)c(F)c1)NC12CC(NC(=O)C3CN(C(=O)C4(F)CC4)c4cc(Cl)ccc4O3)(C1)C2 (stereo not shown) [Compound 140, 6-chloro-N-{3-[2-(4-chloro-3-fluorophenoxy)acetamido]bicyclo[1.1.1]pentan-1-yl}-4-(1-fluorocyclopropane-1-carbonyl)-3,4-dihydro-2H-1,4-benzoxazine-2-carboxamide] yielded an EC50 of 50 to 250 nM.
In the case of CN1C[C@@H](C(=O)NC23CC(NC(=O)COc4ccc(Cl)c(F)c4)(C2)C3)Oc2ccc(Cl)cc21 (single isomer, unassigned) [Compound 104], the EC50 is reported as under 10 nM.
O=C(COc1ccc(Cl)c(F)c1)NC12CCC(NC(=O)[C@H]3COc4ccccc4O3)(CC1)[C@@H](O)C2 [Compound 126, (2R)—N-{(2S)-4-[2-(4-chloro-3-fluorophenoxy)acetamido]-2-hydroxybicyclo[2.2.2]octan-1-yl}-2,3-dihydro-1,4-benzodioxine-2-carboxamide] gave an EC50 of under 10 nM.
With O=C(COc1ccc(Cl)c(F)c1)NC12CC(NC(=O)[C@H]3CCc4cc(F)ccc4O3)(C1)C2 [Compound 120, (2R)—N-{3-[2-(4-chloro-3-fluorophenoxy)acetamido]bicyclo[1.1.1]pentan-1-yl}-6-fluoro-3,4-dihydro-2H-1-benzopyran-2-carboxamide] the EC50 was under 10 nM.
O=C(COc1ccc(Cl)c(F)c1)NC12CC(NC(=O)C3CN(C(=O)C4(C(F)(F)F)CC4)c4cc(Cl)ccc4O3)(C1)C2 (stereo not shown) [Compound 177, 6-chloro-N-{3-[2-(4-chloro-3-fluorophenoxy)acetamido]bicyclo[1.1.1]pentan-1-yl}-4-[1-(trifluoromethyl)cyclopropane-1-carbonyl]-3,4-dihydro-2H-1,4-benzoxazine-2-carboxamide] gave an EC50 of under 10 nM.
Compound COc1cccc(C(=O)N2CC(C(=O)NC34CC(NC(=O)COc5ccc(Cl)c(F)c5)(C3)C4)Oc3ccc(Cl)cc32)c1 (stereo not shown) [Compound 146, 6-chloro-N-{3-[2-(4-chloro-3-fluorophenoxy)acetamido]bicyclo[1.1.1]pentan-1-yl}-4-(3-methoxybenzoyl)-3,4-dihydro-2H-1,4-benzoxazine-2-carboxamide] has an EC50 of 500 to 2000 nM.
For O=C(COc1ccc(Cl)c(F)c1)NC12CCC(NC(=O)C3COc4ccccc4O3)(CC1)[C@H](O)C2 (stereo partly drawn) [Compound 123, N-{(2R)-4-[2-(4-chloro-3-fluorophenoxy)acetamido]-2-hydroxybicyclo[2.2.2]octan-1-yl}-2,3-dihydro-1,4-benzodioxine-2-carboxamide], the EC50 was 250 to 500 nM.
Compound CN1CC(C(=O)NC23CCC(NC(=O)COc4ccc(Cl)c(F)c4)(CC2)[C@@H](O)C3)Oc2ccccc21 (stereo partly drawn) [Compound 111, N-{(3S)-4-[2-(4-chloro-3-fluorophenoxy)acetamido]-3-hydroxybicyclo[2.2.2]octan-1-yl}-4-methyl-3,4-dihydro-2H-1,4-benzoxazine-2-carboxamide] has an EC50 of 50 to 250 nM.
In the case of O=C(COc1ccc(Cl)c(F)c1)NC12CC(NC(=O)C3COc4cc(F)c(F)cc4O3)(C1)C2 (stereo not shown) [Compound 118, N-{3-[2-(4-chloro-3-fluorophenoxy)acetamido]bicyclo[1.1.1]pentan-1-yl}-6,7-difluoro-2,3-dihydro-1,4-benzodioxine-2-carboxamide], the EC50 is reported as under 10 nM.
C[C@]1(C(=O)NC23CC(NC(=O)COc4ccc(Cl)c(F)c4)(C2)C3)COc2cc3c(cc21)OC(F)(F)O3 [Compound 131, (7R)—N-{3-[2-(4-chloro-3-fluorophenoxy)acetamido]bicyclo[1.1.1]pentan-1-yl}-2,2-difluoro-7-methyl-6,7-dihydro-2H-furo[2,3-f][1,3]benzodioxole-7-carboxamide] was tested, and the EC50 was 500 to 2000 nM.
Compound O=C(COc1ccc(Cl)c(F)c1)NC12CC(NC(=O)C3CN(C(=O)c4ccncc4)c4cc(Cl)ccc4O3)(C1)C2 (stereo not shown) [Compound 169, 6-chloro-N-{3-[2-(4-chloro-3-fluorophenoxy)acetamido]bicyclo[1.1.1]pentan-1-yl}-4-(pyridine-4-carbonyl)-3,4-dihydro-2H-1,4-benzoxazine-2-carboxamide] has an EC50 of 250 to 500 nM.
O=C(COc1ccc(Cl)c(F)c1)NC12CCC(NC(=O)C3CNc4cc(Cl)ccc4O3)(CC1)C[C@@H]2O (stereo partly drawn) [Compound 114, 6-chloro-N-{(3S)-4-[2-(4-chloro-3-fluorophenoxy)acetamido]-3-hydroxybicyclo[2.2.2]octan-1-yl}-3,4-dihydro-2H-1,4-benzoxazine-2-carboxamide] gave an EC50 of under 10 nM.
Work on O=C(COc1ccc(Cl)c(F)c1)NC12CCC(NC(=O)[C@@H]3COc4ccccc4O3)(CC1)[C@@H](O)C2 [Compound 127, (2S)—N-{(2S)-4-[2-(4-chloro-3-fluorophenoxy)acetamido]-2-hydroxybicyclo[2.2.2]octan-1-yl}-2,3-dihydro-1,4-benzodioxine-2-carboxamide] yielded an EC50 of 10 to 50 nM.
For O=C(COc1ccc(Cl)c(F)c1)NC12CC(NC(=O)C3CNc4cc(F)c(F)cc4O3)(C1)C2 (stereo not shown) [Compound 108, N-{3-[2-(4-chloro-3-fluorophenoxy)acetamido]bicyclo[1.1.1]pentan-1-yl}-6,7-difluoro-3,4-dihydro-2H-1,4-benzoxazine-2-carboxamide], the EC50 was under 10 nM.
O=C(COc1ccc(Cl)c(F)c1)NC12CC(NC(=O)C3CN(C(=O)C4CC4)c4cc(Cl)ccc4O3)(C1)C2 (stereo not shown) [Compound 149, 6-chloro-N-{3-[2-(4-chloro-3-fluorophenoxy)acetamido]bicyclo[1.1.1]pentan-1-yl}-4-(cyclopropanecarbonyl)-3,4-dihydro-2H-1,4-benzoxazine-2-carboxamide] gave an EC50 of 50 to 250 nM.
O=C(COc1ccc(Cl)c(F)c1)NC12CC(NC(=O)C3CN(C(=O)C(F)(F)C(F)(F)F)c4cc(Cl)ccc4O3)(C1)C2 (stereo not shown) [Compound 178, 6-chloro-N-{3-[2-(4-chloro-3-fluorophenoxy)acetamido]bicyclo[1.1.1]pentan-1-yl}-4-(2,2,3,3,3-pentafluoropropanoyl)-3,4-dihydro-2H-1,4-benzoxazine-2-carboxamide] showed an EC50 of under 10 nM.
Compound O=C(COc1ccc(Cl)c(F)c1)NC12CC(NC(=O)C3CN(S(=O)(=O)CC(F)(F)F)c4cc(Cl)ccc4O3)(C1)C2 (stereo not shown) [Compound 183, 6-chloro-N-{3-[2-(4-chloro-3-fluorophenoxy)acetamido]bicyclo[1.1.1]pentan-1-yl}-4-(2,2,2-trifluoroethanesulfonyl)-3,4-dihydro-2H-1,4-benzoxazine-2-carboxamide] has an EC50 of 10 to 50 nM.
Compound COc1ccc(C(=O)N2CC(C(=O)NC34CC(NC(=O)COc5ccc(Cl)c(F)c5)(C3)C4)Oc3ccc(Cl)cc32)cc1 (stereo not shown) [Compound 150, 6-chloro-N-{3-[2-(4-chloro-3-fluorophenoxy)acetamido]bicyclo[1.1.1]pentan-1-yl}-4-(4-methoxybenzoyl)-3,4-dihydro-2H-1,4-benzoxazine-2-carboxamide] has an EC50 of 250 to 500 nM.
CN1C[C@@H](C(=O)NC23CCC(NC(=O)COc4ccc(Cl)c(F)c4)(CC2)[C@@H](O)C3)Oc2ccc(Cl)cc21 [Compound 107, 6-chloro-N-{(3S)-4-[2-(4-chloro-3-fluorophenoxy)acetamido]-3-hydroxybicyclo[2.2.2]octan-1-yl}-4-methyl-3,4-dihydro-2H-1,4-benzoxazine-2-carboxamide] was tested, and the EC50 was under 10 nM.
O=C(COc1ccc(Cl)c(F)c1)NC12CC(NC(=O)[C@H]3COc4cc(Cl)ccc4O3)(C1)C2 [Compound 119, (2R)-6-chloro-N-{3-[2-(4-chloro-3-fluorophenoxy)acetamido]bicyclo[1.1.1]pentan-1-yl}-2,3-dihydro-1,4-benzodioxine-2-carboxamide] gave an EC50 of under 10 nM.
For O=C(COc1ccc(Cl)c(F)c1)NC12CCC(NC(=O)[C@H]3CCc4cc(F)ccc4O3)(CC1)C[C@@H]2O [Compound 106, (2R)—N-{(3S)-4-[2-(4-chloro-3-fluorophenoxy)acetamido]-3-hydroxybicyclo[2.2.2]octan-1-yl}-6-fluoro-3,4-dihydro-2H-1-benzopyran-2-carboxamide], the EC50 was under 10 nM.
Work on NS(=O)(=O)c1ccc(S(=O)(=O)N2CC(C(=O)NC34CC(NC(=O)COc5ccc(Cl)c(F)c5)(C3)C4)Oc3ccc(Cl)cc32)cc1 (stereo not shown) [Compound 174, 6-chloro-N-{3-[2-(4-chloro-3-fluorophenoxy)acetamido]bicyclo[1.1.1]pentan-1-yl}-4-(4-sulfamoylbenzene-1-sulfonyl)-3,4-dihydro-2H-1,4-benzoxazine-2-carboxamide] yielded an EC50 of 50 to 250 nM.
O=C(COc1ccc(Cl)c(F)c1)NC12CC(NC(=O)[C@@H]3CCc4cc(F)ccc4O3)(C1)C2 [Compound 121, (2S)—N-{3-[2-(4-chloro-3-fluorophenoxy)acetamido]bicyclo[1.1.1]pentan-1-yl}-6-fluoro-3,4-dihydro-2H-1-benzopyran-2-carboxamide] showed an EC50 of under 10 nM.
Compound O=C(COc1ccc(Cl)c(F)c1)NC12CCC(NC(=O)[C@@H]3CCc4cc(F)ccc4O3)(CC1)C[C@@H]2O [Compound 105, (2S)—N-{(3S)-4-[2-(4-chloro-3-fluorophenoxy)acetamido]-3-hydroxybicyclo[2.2.2]octan-1-yl}-6-fluoro-3,4-dihydro-2H-1-benzopyran-2-carboxamide] has an EC50 of under 10 nM.
In the case of CC(C)(C)OC(=O)CN1C[C@@H](C(=O)NC23CCC(NC(=O)COc4ccc(Cl)c(F)c4)(CC2)C(O)C3)Oc2ccc(Cl)cc21 (stereo in doubt) [Compound 184, tert-butyl [(2S)-6-chloro-2-({(3S)-4-[2-(4-chloro-3-fluorophenoxy)acetamido]-3-hydroxybicyclo[2.2.2]octan-1-yl}carbamoyl)-2,3-dihydro-4H-1,4-benzoxazin-4-yl]acetate], the EC50 is reported as 250 to 500 nM.
